In US20070060548A1, “Modulation of Epac, phospholipase Cepsilon, and phospholipase D to treat pain” (The Regents of the University of California, priority 2005, published 2007):
Several values for one entry are separate records, joined by “and”; a condition that tells them apart may be missing. Equal entries are not always repeated. Entries after “also recorded” stand apart in the source; their conditions may differ. Where two headings read alike, the source gives them in different places.

Columns and labels:
[1] = test system: PKCε translocation in cultured DRG neurons; assay: PKCε translocation to the plasma membrane in cultured DRG neurons (immunocytochemistry, 50 cells per culture counted); type: cell-based, rat; details: for PKCε translocating cells after inhibitor pretreatment and CPTOMe stimulation: 15 min pretreatment (U73122/U73343 10 μM, 1-/2-butanol 50 mM), then CPTOMe 10 μM 90 s
Experimental: Cultures of dissociated dorsal root ganglia were prepared from male Sprague-Dawley rats (200-300 g, Charles River, Hollister, Calif., USA), adapting a previously described protocol (Khasar et al., 1999b). Rats were anesthetized with an overdose of Nembutal (50 mg per animal, s.c.). L1-L6 DRGs were removed, desheathed, pooled, incubated with collagenase (final concentration (f.c.) 0.125%, 1 h, 37° C.) followed by a trypsin digest (f.c. 0.25%, 7 min, 37° C.). Cells were separated by trituration with a fire polished Pasteur pipette. Axon stumps and dead cells were removed by straining (40 μm mesh), followed by centrifugation (3 min, 500 g). Cells were resuspended in 12 ml Neurobasal A/B27-media and plated 0.5 ml (=0.5 DRG equivalents) per culture onto polyornithine/laminin precoated glass cover slips (12 mm diameter) and incubated over night in 24-well plates at 37° C. in 5% CO2. Variability between batches of NeurobasalA media and its B27 supplement resulting in varying translocation of PKCε after stimulation was counteracted by the addition of up to […] ethanol (according to technical support of Invitrogen, less than 2.5% of the ethanol concentration already in the medium).
After a 15-20 h incubation, to allow cells to adhere to coverslips, the cells were stimulated. To ensure homogeneous dispersion of the stimulants, 250 μl of the 500 μl medium was removed, mixed thoroughly with the respective activator/inhibitor and added back to the same culture. […] Activators were added for the indicated time in concentrations based on literature reports. For all agonists time courses were established (some data not shown). Negative controls (unstimulated cells) were treated alike only without the addition of any pharmaceutical reagent. While the physiological stimulus epinephrine was used for the in vivo experiments, the β-AR agonist isoproterenol was used in vitro for identification of the β-AR subtype. After treatment the cells were washed once with phosphate buffered saline (PBS) and fixed with para-formaldehyde (PFA) (4%, 10 min, room temperature (RT)).
PFA-fixed cells were permeabilized with 0.1% Triton X-100 (10 min, RT), followed by three washes with 0.1% bovine serum albumin (BSA)/PBS (5 min, RT). After blockage of unspecific binding sites (5% BSA/10% normal goat serum/PBS, 1 h, RT) the cultures were probed with the respective primary antibody in 1% BSA/PBS (over night, 4° C.), washed three times (1% BSA/PBS, 5 min, RT) and incubated with the secondary fluorophore-coupled antiserum (final concentration (f.c.) 1:200, 1 h, RT). After three final washes (PBS, 5 min, RT), the cultures were mounted with Vectashield onto microscope slides and sealed with nail polish.
Cells were evaluated with a Nikon Microphot FXA microscope, using a 50× oil objective. 50 randomly selected cells per culture were evaluated. Data are plotted as mean percentage of translocating cells per evaluated culture±standard error of means (SEM) based on the number of evaluated cultures. All counting was done in blind fashion by the same observer. All treatments have been repeated with DRG-neurons from different rats, on at least 2 separate days. Confocal images were taken with a 100× oil immersion objective using a Zeiss Axiovert 100 microscope (Carl Zeiss Inc.) attached to a MRC 1000 confocal microscope (Bio-Rad). Epifluorescent images were taken with a 63× oil immersion objective using a Zeiss Axiovert 100 microscope.

Sprague-Dawley rats = assay: Mechanical nociceptive threshold, Randall-Selitto paw pressure test after intradermal injection; type: in vivo, rat; details: for change of baseline mechanical sensitivity (paw-withdrawal threshold): inhibitor alone, without stimulation (U73122/U73343 2.5 μl 1 μg/μl, 1-/2-butanol 2.5 μl); for CPTOMe-induced hyperalgesia after inhibitor preinjection: inhibitor preinjected 30 min before CPTOMe, positive = hyperalgesia; for effect on epinephrine-induced mechanical hyperalgesia: preinjection 30 min before epinephrine (also stated for CPTOMe); for reduction of paw-withdrawal threshold: agent alone, intradermal (epinephrine 0.1 μg, CPTOMe 6.3 μg in 2.5 μl), measured 30 min after injection
Experimental: Behavioral experiments were performed on male Sprague-Dawley rats (200-300 g, Charles River, Hollister, Calif., USA). Animals were housed in a controlled environment in the Animal Care Facility of the University of California, San Francisco, under a 12 h light/dark cycle. Food and water were available ad libitum. Care and use of animals conformed to NIH guidelines. The UCSF Committee on Animal Research approved experimental protocols. All efforts were made to minimize the number of animals used. The nociceptive flexion reflex was quantified using the Randall-Selitto paw pressure device (Analgesymeter®, Stoetling), which applies a linearly increasing mechanical force to the dorsum of the rat's hind paw. The nociceptive mechanical threshold was defined as the force in grams at which the rat withdrew its paw. The protocols for this procedure have been previously described (Taiwo and Levine, 1989; Dina et al., 2003). Baseline paw-withdrawal threshold was defined as the mean of six readings before test agents were injected. Each paw was treated as an independent measure and each experiment was performed on a separate group of rats. Each group of rats was treated with only one agonist and/or antagonist injected peripherally by the intradermal route. Measurement of nociceptive threshold was taken 30 min after the administration of the hyperalgesic mediator. All behavioral testing was done between 10.00 and 16.00 h. The blocking agents were injected as described previously ([…] et al., 1995; […] et al., 1999a). […] […] et al., 1999a).

[2] = 15 min pretreatment (ICI 118,551 50 μM, D-609 30 μM, U73122/U73343 10 μM, 1-/2-butanol 50 mM, BIM 100 nM), then isoproterenol 1 μM 30 s
[3] = activator alone, 30 s stimulation (isoproterenol 1 μM, cholera toxin 1 μg/ml, forskolin 5 μM, CPTOMe 10 μM), mean±SEM

CCCCO [1-butanol]
PKCε translocating cells after inhibitor pretreatment and isoproterenol stimulation [1, 2]: 5.5±1.1%
PKCε translocating cells after inhibitor pretreatment and CPTOMe stimulation [1]: 8.7±1.5%
change of baseline mechanical sensitivity (paw-withdrawal threshold) (Sprague-Dawley rats): −0.0%±1.8%
CPTOMe-induced hyperalgesia after inhibitor preinjection (Sprague-Dawley rats): −0.5%±1.8%
effect on epinephrine-induced mechanical hyperalgesia (Sprague-Dawley rats): inhibits completely

CCC(C)O (stereo not shown) [2-butanol]
PKCε translocating cells after inhibitor pretreatment and isoproterenol stimulation [1, 2]: 16.0±2.4%
PKCε translocating cells after inhibitor pretreatment and CPTOMe stimulation [1]: 21.8±2.7%
change of baseline mechanical sensitivity (paw-withdrawal threshold) (Sprague-Dawley rats): −8%±1.7%
CPTOMe-induced hyperalgesia after inhibitor preinjection (Sprague-Dawley rats): 33.4±1.7%

CN(C)CCCn1cc(C2=C(c3c[nH]c4ccccc34)C(=O)NC2=O)c2ccccc21 [BIM, bisindolylmaleimide I]
PKCε translocating cells after inhibitor pretreatment and isoproterenol stimulation [1]: 19.8±1.3%

Cc1ncc2ccccc2c1C#N [CMIQ, 4-cyano-3-methylisoquinoline]
effect on isoproterenol-induced PKCε translocation ([1]; 15 min preincubation, up to 1000-fold IC50 (0.03-30 μM), then isoproterenol 1 μM 30 s): still translocated to the plasma membrane, as in control conditions
effect on mechanical paw-withdrawal threshold (Sprague-Dawley rats; CMIQ alone 2.5 μg/2.5 μl intradermally): did not change
effect on PKA catalytic subunit-induced hyperalgesia (Sprague-Dawley rats; CMIQ preinjected 15 min before PKAcs): completely abrogated; also recorded: completely blocked

CO[C@@H]1[C@@H]2OP(=O)(O)OC[C@H]2O[C@H]1n1c(Sc2ccc(Cl)cc2)nc2c(N)ncnc21 [CPTOMe, 8-CPT-2′-O-Me-cAMP]
PKCε translocating cells [1]: 20.3±2.6% and 23.5±3.7%
time of maximal PKCε translocation ([1]; activator alone, time course): 90 s
CPTOMe-induced hyperalgesia (Sprague-Dawley rats; CPTOMe alone, comparator of the inhibitor experiment): 31.7%±0.8%
reduction of paw-withdrawal threshold (Sprague-Dawley rats): 34.6±1.6%

S=C([S-])OC1CC2CC1C1CCCC21.[K+] [D-609]
PKCε translocating cells after inhibitor pretreatment and isoproterenol stimulation [1, 2]: 20.8±2.9%

Cc1ccc(OCC(O)C(C)NC(C)C)c2c1CCC2 (stereo not shown) [ICI 118,551]
PKCε translocating cells after inhibitor pretreatment and isoproterenol stimulation [1, 2]: 3.0%±1.1%

COc1ccc2c(c1)CC[C@@H]1[C@@H]2CC[C@]2(C)[C@@H](NCCCCCCN3C(=O)C=CC3=O)CC[C@@H]12 [U73122]
PKCε translocating cells after inhibitor pretreatment and isoproterenol stimulation [1, 2]: 0.3±0.3%
PKCε translocating cells after inhibitor pretreatment and CPTOMe stimulation [1]: 2.0±0.9%
change of baseline mechanical sensitivity (paw-withdrawal threshold) (Sprague-Dawley rats): −4.4%±1.3%
CPTOMe-induced hyperalgesia after inhibitor preinjection (Sprague-Dawley rats): −2.5%±2.0%
effect on epinephrine-induced mechanical hyperalgesia (Sprague-Dawley rats): completely blocked

COc1ccc2c(c1)CC[C@@H]1[C@@H]2CC[C@]2(C)[C@@H](NCCCCCCN3C(=O)CCC3=O)CC[C@@H]12 [U73343]
PKCε translocating cells after inhibitor pretreatment and isoproterenol stimulation [1, 2]: 15.3±1.9%
PKCε translocating cells after inhibitor pretreatment and CPTOMe stimulation [1]: 23.7±3.6%
change of baseline mechanical sensitivity (paw-withdrawal threshold) (Sprague-Dawley rats): 2.8%±1.9%
CPTOMe-induced hyperalgesia after inhibitor preinjection (Sprague-Dawley rats): 30.9%±1.9%

CNC[C@H](O)c1ccc(O)c(O)c1 [epinephrine]
reduction of paw-withdrawal threshold (Sprague-Dawley rats): 37.7±1.9%

C=C[C@@]1(C)CC(=O)[C@]2(O)[C@@]3(C)[C@@H](O)CCC(C)(C)[C@@H]3[C@H](O)[C@H](OC(C)=O)[C@@]2(C)O1 [forskolin]
PKCε translocating cells [1, 3]: 22.3±4.2%

CC(C)NC[C@H](O)c1ccc(O)c(O)c1 [isoproterenol, (−)-isoproterenol]
PKCε translocating cells [1, 3]: 21.3%±2.8% and 19.0±3.0%
time of maximal PKCε translocation ([1]; activator alone, time course): about 30 s

cholera toxin
PKCε translocating cells [1]: 15.2±3.0% and 24.0±1.9%
time of maximal PKCε translocation [1]: 90 s
